Measured values reported in paper PMC7187334 (Clinical Pharmacology in Drug Development, 2019).
“Also recorded” adds a separate entry of the source. Marks after values point to notes of the source that are not given here.

Assays:
P‐glycoprotein = P‐glycoprotein (Homo sapiens, UniProt P08183); assay: P-glycoprotein inhibition in vitro; format: in vitro ADME
[1] = Phase 1 crossover study: AZD5718 plasma pharmacokinetics; format: in vivo, human; conditions: for AUC(0-inf) / AUC(0-t) / half-life / Tmax / Cmax: human, plasma, oral; for AUC(0-inf): AZD5718 AUC0-inf; for AUC(0-t): AZD5718 AUC0-last; for half-life: AZD5718 t1/2 lambda z; for Tmax: AZD5718 tmax, median (range); for Cmax: AZD5718 Cmax
Procedure: The primary objective was to evaluate the pharmacokinetics of oral rosuvastatin when administered alone and in combination with oral AZD5718. […] Each participant received 5 single-dose oral study treatments (A-E), with a minimum washout period of 7 days between each treatment period. Participants were randomly assigned to treatments in the order A, B, C, D, E or B, A, C, D, E. Treatments were: […] […] Participants fasted for at least 10 hours before treatment and for at least 4 hours after treatment. Participants receiving treatment E consumed a high-fat breakfast 30 minutes before treatment. Water was permitted as desired except within 1 hour of administration. […] Doses were taken with 240 mL of water. […] At a minimum, each analytical run included a calibration curve, a matrix blank, a control zero sample (matrix blank containing internal standard), a reagent blank, and duplicate quality control samples at 3 concentrations within the calibration range. […] Both assessments were well within the acceptance criteria. […] The pharmacokinetic analysis set for rosuvastatin included all participants who received both rosuvastatin treatments. […] Statistical analyses were performed by […] using SAS version 9.4. Rosuvastatin pharmacokinetics were analyzed using a mixed-effects model, with log-transformed AUC, AUC0-last, and Cmax as the response variables; treatment sequence, period, and treatment as fixed effects; and participant nested within treatment sequence as a random effect. […] LS mean differences and 90%CIs for the effect of formulation or food for log-transformed variables were back transformed to geometric mean ratios and presented as percentages with 90% CIs.

healthy volunteers = assay: Phase 1 crossover study: safety and tolerability (adverse events); format: in vivo, human
Procedure: Each participant received 5 single‐dose oral study treatments (A‐E), with a minimum washout period of 7 days between each treatment period.
The safety set included all participants who received treatment in the study and for whom any postdose safety data were available. Safety was assessed throughout the study by monitoring adverse events, vital signs (systolic and diastolic blood pressure, pulse rate, and body temperature), and electrocardiographic parameters and by conducting physical examinations and laboratory assessments (hematology, blood chemistry, and urinalysis).

[2] = tested on: leukotriene B4 production in human leukocytes; conditions: in vitro; cited from earlier work
[3] = tested on: leukotriene B4 production; conditions: healthy volunteers, first-in-human study; 95% CI 4.8-5.8 nM; read-out: IC50, inhibition of leukotriene B4 production, whole-blood ex vivo stimulation assay; cited from earlier work
[4] = tested on: leukotriene E4 levels in urine; conditions: healthy volunteers, first-in-human study; 95% CI 0.7-1.0 nM; read-out: IC50, reduction of endogenous leukotriene E4 levels in urine; cited from earlier work
[5] = healthy volunteers, cited from earlier work
CYP1A2 = conditions: in vitro; read-out: IC50, CYP1A2 inhibition; cited from earlier work
CYP2C8 = conditions: in vitro; read-out: IC50, CYP2C8 inhibition; cited from earlier work
CYP2C9 = conditions: in vitro; read-out: IC50, CYP2C9 inhibition; cited from earlier work
CYP2C19 = conditions: in vitro; read-out: IC50, CYP2C19 inhibition; cited from earlier work
CYP2D6 = conditions: in vitro; read-out: IC50, CYP2D6 inhibition; cited from earlier work
CYP3A4 = conditions: in vitro; read-out: IC50, CYP3A4 inhibition; cited from earlier work
CYP3A4 and CYP3A5 = conditions: in vitro; UGT 1A1, 1A3, 1A4 glucuronidation also contributes; cited from earlier work
[6] = target: organic anion‐transporting polypeptide 1B1 (OATP1B1) (Homo sapiens, UniProt Q9Y6L6); assay: OATP1B1 transporter inhibition in vitro; conditions: read-out: IC50, OATP1B1 inhibition, unpublished data
[7] = 200 mg suspension, fasted, n = 10
[8] = 200 mg tablet plus rosuvastatin 10 mg, fasted, n = 12
[9] = 200 mg, arithmetic mean (SD), 200 mg suspension, fasted, n = 10
[10] = 200 mg, arithmetic mean (SD), 200 mg tablet, fasted, n = 10
[11] = 200 mg, arithmetic mean (SD), 200 mg tablet, fed, n = 12
[12] = 200 mg, geometric mean (%CV), 200 mg suspension, fasted, n = 10
[13] = 200 mg, geometric mean (%CV), 200 mg tablet, fasted, n = 10
[14] = 200 mg, geometric mean (%CV), 200 mg tablet, fed, n = 12
[15] = arithmetic mean (SD), 200 mg tablet plus rosuvastatin 10 mg, fasted, n = 12
[16] = geometric mean (%CV), 200 mg tablet plus rosuvastatin 10 mg, fasted, n = 12
[17] = male, 200 mg, geometric mean (%CV), 200 mg suspension, fasted, n = 12
[18] = male, 200 mg, geometric mean (%CV), 200 mg tablet, fasted, n = 12
[19] = male, 200 mg, geometric mean (%CV), 200 mg tablet, fed, n = 12
[20] = male, geometric mean (%CV), 200 mg tablet plus rosuvastatin 10 mg, fasted, n = 12
[21] = tablets after high-fat breakfast relative to fasting

Sequence of organic anion‐transporting polypeptide 1B1 (OATP1B1) (Q9Y6L6 whole entry): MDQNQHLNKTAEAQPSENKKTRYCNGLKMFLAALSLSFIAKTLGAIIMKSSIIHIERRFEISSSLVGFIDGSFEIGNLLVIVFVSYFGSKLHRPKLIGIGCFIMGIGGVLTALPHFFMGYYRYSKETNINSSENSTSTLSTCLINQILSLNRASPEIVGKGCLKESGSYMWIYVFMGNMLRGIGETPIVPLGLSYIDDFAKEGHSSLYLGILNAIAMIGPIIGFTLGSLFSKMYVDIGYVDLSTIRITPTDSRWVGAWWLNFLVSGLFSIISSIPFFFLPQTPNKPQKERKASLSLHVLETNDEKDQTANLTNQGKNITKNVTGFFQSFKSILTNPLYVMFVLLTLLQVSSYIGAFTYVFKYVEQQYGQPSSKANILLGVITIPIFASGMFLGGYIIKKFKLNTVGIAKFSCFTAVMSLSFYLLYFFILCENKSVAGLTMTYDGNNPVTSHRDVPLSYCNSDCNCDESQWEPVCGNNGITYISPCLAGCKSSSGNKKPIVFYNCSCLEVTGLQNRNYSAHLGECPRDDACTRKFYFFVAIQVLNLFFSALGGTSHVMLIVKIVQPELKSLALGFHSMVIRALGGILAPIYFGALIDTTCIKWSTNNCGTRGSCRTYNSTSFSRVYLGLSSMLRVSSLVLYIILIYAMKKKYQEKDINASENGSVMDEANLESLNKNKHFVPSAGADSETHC
Sequence of P‐glycoprotein (P08183 whole entry): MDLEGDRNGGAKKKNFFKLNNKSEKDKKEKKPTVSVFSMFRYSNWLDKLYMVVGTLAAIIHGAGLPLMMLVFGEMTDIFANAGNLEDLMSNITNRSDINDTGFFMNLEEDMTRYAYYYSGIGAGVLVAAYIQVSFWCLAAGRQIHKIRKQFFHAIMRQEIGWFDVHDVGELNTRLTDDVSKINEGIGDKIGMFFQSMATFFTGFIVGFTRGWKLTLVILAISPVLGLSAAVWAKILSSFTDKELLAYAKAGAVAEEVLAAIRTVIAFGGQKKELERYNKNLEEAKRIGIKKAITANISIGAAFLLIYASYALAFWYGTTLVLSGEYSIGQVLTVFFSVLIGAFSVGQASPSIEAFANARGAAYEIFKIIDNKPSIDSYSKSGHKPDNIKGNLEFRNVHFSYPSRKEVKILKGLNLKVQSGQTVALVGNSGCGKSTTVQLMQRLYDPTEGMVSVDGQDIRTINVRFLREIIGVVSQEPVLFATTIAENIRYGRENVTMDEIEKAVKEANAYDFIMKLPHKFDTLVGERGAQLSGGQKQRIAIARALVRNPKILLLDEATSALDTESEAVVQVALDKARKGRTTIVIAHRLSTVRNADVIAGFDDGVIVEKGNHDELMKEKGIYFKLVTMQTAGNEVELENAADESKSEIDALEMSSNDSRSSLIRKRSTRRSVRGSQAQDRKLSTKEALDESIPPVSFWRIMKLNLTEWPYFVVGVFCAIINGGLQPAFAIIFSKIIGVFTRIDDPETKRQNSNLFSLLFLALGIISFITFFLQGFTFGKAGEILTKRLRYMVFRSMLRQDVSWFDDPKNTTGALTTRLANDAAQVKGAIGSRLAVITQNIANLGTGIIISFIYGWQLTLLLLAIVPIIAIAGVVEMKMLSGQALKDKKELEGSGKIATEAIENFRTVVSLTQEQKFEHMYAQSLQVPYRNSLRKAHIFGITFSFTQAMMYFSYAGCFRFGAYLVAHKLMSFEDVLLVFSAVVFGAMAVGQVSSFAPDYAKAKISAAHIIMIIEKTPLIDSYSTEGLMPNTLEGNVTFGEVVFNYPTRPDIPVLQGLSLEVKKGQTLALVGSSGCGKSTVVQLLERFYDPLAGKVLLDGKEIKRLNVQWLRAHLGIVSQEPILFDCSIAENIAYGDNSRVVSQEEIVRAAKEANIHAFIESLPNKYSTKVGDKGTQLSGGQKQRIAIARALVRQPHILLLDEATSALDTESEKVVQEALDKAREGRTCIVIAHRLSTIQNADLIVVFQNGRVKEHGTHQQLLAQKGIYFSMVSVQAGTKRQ

With Cc1cc(-c2ccc(C(=O)[C@@H]3CCCC[C@H]3C(=O)Nc3cnn4c3C(=O)NCC4)cc2)n[nH]1 [AZD5718] as the molecule, how does the IC50 (P‐glycoprotein) read?
The IC50 was > 100000 nM.

And the “AZD5718 CL/F, arithmetic mean (SD)” value [1, 7]?
Its value is 93.55 (20.40) ^a L/h.

And the “AZD5718 CL/F, geometric mean (%CV)” value [1, 7]?
The value was 91.5 (22.2) ^a L/h.

What about the “AZD5718 CL/F, arithmetic mean (SD)” value [1, 8] of the same molecule?
Its value is 127.6 (28.12) L/h.

What about the “AZD5718 CL/F, geometric mean (%CV)” value [1, 8] of the same molecule?
The value was 124.6 (22.6) L/h.

What about the “AZD5718 Cmax, ratio of geometric LS means” value ([1]; 200 mg tablet vs oral suspension, fasted, 90% CI 36%-57%) of the same molecule?
Its value is 45%.

What about the “AZD5718 AUC0-inf (relative bioavailability), geometric LS mean ratio” value ([1]; 200 mg tablet vs oral suspension, fasted, 90% CI 64%-80%) of the same molecule?
Its value is 72%.

What about the “AZD5718 CL/F, arithmetic mean (SD)” value ([1]; 200 mg tablet, fasted, n = 10) of the same molecule?
The value was 128.1 (25.63) ^a L/h.

What about the “AZD5718 CL/F, geometric mean (%CV)” value ([1]; 200 mg tablet, fasted, n = 10) of the same molecule?
Its value is 126.0 (20.1) ^a L/h.

And the “AZD5718 AUC0-inf (relative bioavailability), geometric LS mean ratio” value ([1]; 200 mg tablet, fed (high-fat breakfast) vs fasted, 90% CI 87%-106%)?
Its value is 96%.

And the “AZD5718 Cmax, geometric LS mean ratio” value ([1]; 200 mg tablet, fed vs fasted, 90% CI 63%-95%)?
The value was 77%.

And the “AZD5718 CL/F, arithmetic mean (SD)” value ([1]; 200 mg tablet, fed, n = 12)?
Its value is 136.9 (25.53) L/h.

And the “AZD5718 CL/F, geometric mean (%CV)” value ([1]; 200 mg tablet, fed, n = 12)?
The value was 134.4 (20.4) L/h.

What about the “Effect of rosuvastatin coadministration on AZD5718 pharmacokinetics” value ([1]; AZD5718 200 mg tablet plus rosuvastatin 10 mg vs tablet alone) of the same molecule?
Its value is “unaffected; also recorded: not affected”.

And the “Between-participant variability (CV) of AUC0-inf and AUC0-last” value ([1]; AZD5718 tablets)?
The value was < 25%.

And the AUC(0-inf) [1, 9]?
The AUC(0-inf) was 5 µM·h.

And the AUC(0-inf) [1, 10]?
The AUC(0-inf) was 3.62 µM·h.

And the AUC(0-inf) [1, 11]?
The AUC(0-inf) was 3.4 µM·h.

And the AUC(0-inf) [1, 12]?
The AUC(0-inf) was 4.89 µM·h.

What about the AUC(0-inf) [1, 13] of the same molecule?
Its AUC(0-inf) is 3.56 µM·h.

And the AUC(0-inf) [1, 14]?
Its AUC(0-inf) is 3.33 µM·h.

What about the AUC(0-t) ([1]; 200 mg, arithmetic mean (SD), 200 mg suspension, fasted, n = 12) of the same molecule?
Its AUC(0-t) is 4.75 µM·h.

And the AUC(0-t) ([1]; 200 mg, arithmetic mean (SD), 200 mg tablet, fasted, n = 12)?
The AUC(0-t) was 3.49 µM·h.

What about the AUC(0-t) [1, 11] of the same molecule?
The AUC(0-t) was 3.27 µM·h.

And the half-life [1, 9]?
The half-life was 13.6 h.

What about the half-life [1, 10] of the same molecule?
Its half-life is 14 h.

And the half-life [1, 11]?
The half-life was 13.7 h.

What about the half-life [1, 12] of the same molecule?
The half-life was 13.2 h.

What about the half-life [1, 13] of the same molecule?
The half-life was 13.2 h.

What about the half-life [1, 14] of the same molecule?
Its half-life is 13.5 h.

And the Tmax ([1]; 200 mg, 200 mg suspension, fasted, n = 12)?
Its Tmax is 1 h.

And the Tmax ([1]; 200 mg, 200 mg tablet, fed, n = 12)?
The Tmax was 4 h.

What about the AUC(0-inf) [1, 15] of the same molecule?
Its AUC(0-inf) is 3.67 µM·h.

What about the AUC(0-inf) [1, 16] of the same molecule?
The AUC(0-inf) was 3.59 µM·h.

And the AUC(0-t) [1, 15]?
The AUC(0-t) was 3.55 µM·h.

And the half-life [1, 15]?
Its half-life is 15 h.

And the half-life [1, 16]?
The half-life was 13.9 h.

What about the Tmax [1, 8] of the same molecule?
Its Tmax is 2.01 h.

And the “Decrease in AZD5718 Cmax” value ([1]; immediate-release tablets relative to oral suspension)?
The value was “about 55%”.

What about the AUC(0-t) [1, 17] of the same molecule?
Its AUC(0-t) is 4.65 µM·h.

What about the AUC(0-t) [1, 18] of the same molecule?
The AUC(0-t) was 3.43 µM·h.

And the AUC(0-t) [1, 19]?
Its AUC(0-t) is 3.21 µM·h.

And the Cmax ([1]; male, 200 mg, arithmetic mean (SD), 200 mg suspension, fasted, n = 12)?
Its Cmax is 1250 nM.

And the Cmax ([1]; male, 200 mg, arithmetic mean (SD), 200 mg tablet, fasted, n = 12)?
The Cmax was 565 nM.

And the Cmax ([1]; male, 200 mg, arithmetic mean (SD), 200 mg tablet, fed, n = 12)?
Its Cmax is 427 nM.

And the Cmax [1, 17]?
The Cmax was 1170 nM.

And the Cmax [1, 18]?
Its Cmax is 530 nM.

What about the Cmax [1, 19] of the same molecule?
Its Cmax is 409 nM.

And the AUC(0-t) [1, 20]?
Its AUC(0-t) is 3.46 µM·h.

What about the Cmax ([1]; male, arithmetic mean (SD), 200 mg tablet plus rosuvastatin 10 mg, fasted, n = 12) of the same molecule?
The Cmax was 567 nM.

And the Cmax [1, 20]?
The Cmax was 545 nM.

What about the “Decrease in AZD5718 Cmax” value [1, 21] of the same molecule?
Its value is “about 23%”.

And the “Delay in AZD5718 tmax” value [1, 21]?
The value was “about 1 hour”.

And the “Deaths, serious adverse events, adverse events leading to discontinuation” value (healthy volunteers; all 5 treatment periods, 12 healthy men)?
The value was “No deaths, serious adverse events, or adverse events leading to discontinuation occurred”.

What about the “Participants with any AE” value (healthy volunteers; human, in vivo) of the same molecule?
The value was 6 (50.0) n (%).

And the “Participants with dry skin” value (healthy volunteers; human, in vivo)?
Its value is 1 (8.3) n (%).

And the Participants with headache (healthy volunteers; human, in vivo)?
Its Participants with headache is 2 (16.7) n (%).

And the “Participants with hot flush” value (healthy volunteers; human, in vivo)?
Its value is 1 (8.3) n (%).

What about the “Participants with influenza-like illness” value (healthy volunteers; human, in vivo) of the same molecule?
Its value is 1 (8.3) n (%).

What about the “Participants with musculoskeletal pain” value (healthy volunteers; human, in vivo) of the same molecule?
Its value is 1 (8.3) n (%).

And the “Participants with nasal congestion” value (healthy volunteers; human, in vivo)?
Its value is 1 (8.3) n (%).

And the Participants with nasopharyngitis (healthy volunteers; human, in vivo)?
The Participants with nasopharyngitis was 1 (8.3) n (%).

And the Participants with nausea (healthy volunteers; human, in vivo)?
The Participants with nausea was 1 (8.3) n (%).

What about the “Participants with oropharyngeal pain” value (healthy volunteers; human, in vivo) of the same molecule?
Its value is 1 (8.3) n (%).

What about the “Participants with poor-quality sleep” value (healthy volunteers; human, in vivo) of the same molecule?
The value was 1 (8.3) n (%).

What about the IC50 [2] of the same molecule?
The IC50 was 39 nM.

And the IC50 [3]?
Its IC50 is 5.3 nM.

And the IC50 [4]?
Its IC50 is 0.8 nM.

What about the “time to steady-state levels” value ([5]; oral suspension, multiple doses) of the same molecule?
The value was “about 3 days”.

And the tolerability ([5]; single oral doses 25-1200 mg and multiple doses 60-600 mg)?
Its tolerability is “well tolerated, with no identified safety concerns”.

And the IC50 (CYP1A2)?
Its IC50 is > 20000 nM.

And the IC50 (CYP2C8)?
The IC50 was > 20000 nM.

And the IC50 (CYP2C9)?
The IC50 was > 20000 nM.

And the IC50 (CYP2C19)?
Its IC50 is > 20000 nM.

What about the IC50 (CYP2D6) of the same molecule?
The IC50 was > 20000 nM.

And the IC50 (CYP3A4)?
The IC50 was > 20000 nM.

What about the “enzymes involved in metabolism” value (CYP3A4 and CYP3A5) of the same molecule?
The value was “cytochrome P450 (CYP) 3A4 and CYP3A5 are involved in the metabolism”.

What about the IC50 [6] of the same molecule?
Its IC50 is 2300 nM.
